Where a name gives a salt, the structure may show the parent alone.
What follows are compounds tested against T1, 5-HT1A receptor (assay: In vitro binding to the 5-HT1A receptor (method of Peroutka, Brain Research 344, 167 (1985), minor modifications)). Details: in vitro binding to 5-HT1A receptor; class symbols.
T1 construct: from tissue
Method: In vitro IC50 test values for binding to the 5-HT1A receptor were determined for representative compounds of Formula I by the method of S. J. Peroutka, Brain Research 344, 167 (1985); with only minor modifications. Test IC50 values lower than 100 nM are considered to reflect activity at the 5-HT1A receptor.

T1 sequence (F6Q2H9 1-422): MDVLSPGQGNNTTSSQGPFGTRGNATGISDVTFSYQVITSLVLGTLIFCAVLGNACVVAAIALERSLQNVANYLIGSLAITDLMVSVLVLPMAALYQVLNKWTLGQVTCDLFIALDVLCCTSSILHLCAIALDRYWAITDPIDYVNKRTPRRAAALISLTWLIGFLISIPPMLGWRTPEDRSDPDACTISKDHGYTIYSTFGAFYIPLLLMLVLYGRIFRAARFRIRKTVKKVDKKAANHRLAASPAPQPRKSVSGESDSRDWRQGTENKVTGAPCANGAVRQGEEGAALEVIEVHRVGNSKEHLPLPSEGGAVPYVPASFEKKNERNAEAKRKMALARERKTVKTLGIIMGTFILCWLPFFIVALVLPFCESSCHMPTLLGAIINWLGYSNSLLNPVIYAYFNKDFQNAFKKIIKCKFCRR

SMILES | IC50 [nM]
CCN(CC1COc2ccccc2O1)C1CCC(O)(c2ccc3c(c2)OCO3)CC1 (mixture of isomers) [Example 7, (±)-Cis-N-Ethyl-N,[4-(1,3-benzodioxol-5-yl)-4-hydroxycyclohexyl]-1,4-benzodioxane-2-methanamine fumarate] | 5 to 25
COC1(c2ccc3c(c2)OCCO3)CCC(NCC2COc3ccccc3O2)CC1 (racemic) [Example 4, (±)-Cis-N-[4-(1,4-benzodioxan-6-yl)-4-methoxycyclohexyl]-1,4-benzodioxane-2-methanamine hemifumarate] | 1 to 5
CCOC1(c2ccc3c(c2)OCO3)CCC(NCC2COc3ccccc3O2)CC1 (racemic) [Example 5, (±)-Cis-N-[4-(1,3-benzodioxol-5-yl)-4-ethoxycyclohexyl]-1,4-benzodioxane-2-methanamine fumarate] | 1 to 5
COC1(c2ccc3c(c2)OCO3)CCC(NCC2COc3ccccc3O2)CC1 (racemic) [Example 6, (±)-Cis-N-[4-(1,3-Benzodioxol-5-yl)-4-methoxycyclohexyl]-1,4-benzodioxane-2-methanamine hemifumarate] | 1 to 5
OC1(c2ccc3c(c2)OCO3)CCC(NCC2COc3ccccc3O2)CC1 (stereo not drawn) [Example 1, Cis-4-[(2S-1,4-Benzodioxan-2-yl)methylamino]-1-(1,3-benzodioxol-5-yl)cyclohexanol] | < 1
COC1(c2ccc3c(c2)OCO3)CCC(NCC2COc3ccccc3O2)CC1 (stereo not drawn) [Example 2, Cis-N-[4-(1,3-Benzodioxol-5-yl)-4-methoxycyclohexyl]-2S-1,4-benzodioxane-2-methanamine hemifumarate] | < 1

Next, values leading:

IC50 [nM] | SMILES
5 to 25 | COC1(c2ccc3c(c2)OCO3)CCC(N(C)CC2COc3ccccc3O2)CC1 (mixture of isomers) [Example 8, (±) -Cis-N-Methyl-N-[4-(1,3-benzodioxol-5-yl)-4-methoxycyclohexyl]-1,4,-benzodioxane-2-methanamine fumarate]
5 to 25 | COC1(c2ccc3c(c2)OCO3)CCC(NCC2COc3ccccc3O2)CC1 (racemic) [Example 10, (±)-Trans-N-[4-(1,3-benzodioxol-5-yl)-4-methoxycyclohexyl]-1,4-benzodioxane-2-methanamine hemifumarate]
< 1 | OC1(c2ccc3c(c2)OCO3)CCC(NCC2CCc3ccccc3O2)CC1 (racemic) [Example 11, (±)-Cis-4-[[(3,4-dihydro-2H-1-benzopyran-2-yl)methyl]amino]-1-(1,3-benzodioxol-5-yl)cyclohexanol]
< 1 | OC1(c2ccc(F)c(F)c2)CCC(NCC2COc3ccccc3O2)CC1 (racemic) [Example 13, (±)-Cis-4-[(1,4-Benzodioxan-2-yl)methylamino]-1-(3,4-difluorophenyl)cyclohexanol]
< 1 | COC1(c2ccc3c(c2)OCO3)CCC(NCC2COc3ccccc3O2)CC1 (single isomer, unassigned; (-)) [Example 9]
5 to 25 | C1=C(c2ccc3c(c2)OCO3)CCC(NC[C@H]2COc3ccccc3O2)C1 (stereo partly drawn) [Example 12, N-[4-(1,3-Benzodioxol-5-yl)-3-cyclohexen-1-yl]-2S-1,4-benzodioxane-2-methanamine]

Reference: patent publication US5496847A, “Aminomethyl-benzodioxane and benzopyran serotonergic agents” (Bristol-Myers Squibb Co., priority 1995, dated 1996)
